The subject of this experiment is Tobacco mosaic virus. Briefly: Antiviral activity against Tobacco mosaic virus after 72 hrs by half-leaf juice rubbing method. It is filed as functional. Details: concentration or dose not given beside the values.

The values below come from ChEMBL document CHEMBL1641422, “Bitriazolyl acyclonucleosides synthesized via Huisgen reaction using internal alkynes show antiviral activity against tobacco mosaic virus” (2011).

Turning to `NC(=O)c1nc(-c2nn[nH]c2-c2ccccc2)n(COCCO)n1`, the Activity turned out to be 36%.

Take `Cc1ccc(-c2[nH]nnc2-c2nc(C(N)=O)nn2COCCO)cc1`: the Activity was determined as 28%.

Compound `COc1ccc(-c2[nH]nnc2-c2nc(C(N)=O)nn2COCCO)cc1` displayed an Activity of 39%.

Compound `CCCCc1ccc(-c2[nH]nnc2-c2nc(C(N)=O)nn2COCCO)cc1` had an Activity of 22%.

With `CCCCCc1ccc(-c2[nH]nnc2-c2nc(C(N)=O)nn2COCCO)cc1`, the Activity is 44%.

Regarding `NC(=O)c1nc(-c2nn[nH]c2-c2ccc(F)cc2)n(COCCO)n1`, the Activity turned out to be 29%.

`NC(=O)c1nc(-c2nn[nH]c2-c2ccccc2C(F)(F)F)n(COCCO)n1` showed an Activity of 17%.

Compound `NC(=O)c1nc(-c2nn[nH]c2-c2cccc(C(F)(F)F)c2)n(COCCO)n1` yielded an Activity of 16%.

In the case of `NC(=O)c1nc(-c2nn[nH]c2-c2ccc(C(F)(F)F)cc2)n(COCCO)n1`, the Activity was 30%.

`NC(=O)c1nc(-c2nn[nH]c2-c2cccs2)n(COCCO)n1` gave an Activity of 14%.

`CCCCCc1[nH]nnc1-c1nc(C(N)=O)nn1COCCO` registered an Activity of 34%.

Compound `NC(=O)c1nc(-c2nn[nH]c2C2=CCCCC2)n(COCCO)n1` returned an Activity of 23%.

`NC(=O)c1ncn([C@@H]2O[C@H](CO)[C@@H](O)[C@H]2O)n1` [RIBAVIRIN] returned an Activity of 39%.
